Laboratory results from patent US20130040331A1, “LABEL-FREE METHODS RELATED TO hERG POTASSIUM ION [sequence]” (CORNING INCORPORATED, priority 2009, published 2013).

What was measured:
HEK-hERG cells = assay: Label-free RWG biosensor (Epic) DMR assay, agonism mode, HEK-hERG cells stably expressing hERG; assay type: cell-based, human
Protocol: (§1) Epic® wavelength interrogation system (Corning Inc., Corning, N.Y.) was used for whole cell sensing. This system consists of a temperature-control unit, an optical detection unit, and an on-board liquid handling unit with robotics. The detection unit is centered on integrated fiber optics, and enables kinetic measures of cellular responses with a time interval of ˜15 sec.
(§2) Cells were plated in 384-well Epic® cell culture treated plate (Corning Cat#5040) 16-20 hours before assay (15000 cells/well for HEK293 and HEK-hERG cells, 30000 cells/well for HT29 cells). For both HEK-hERG and its parental HEK293 cells, each well was coated with 10 μl 5 μg/ml fibronectin. One hour before assay, cells were washed twice on a BioTek ELx405 Select washer with Hank's Balanced Salt Solution (HBSS) containing 20 mM Hepes. Cells were incubated in 40 μl/well HBSS at 28° C. inside the Epic system for one hour. For each assay, a 2-min baseline was initiated, followed by addition of 10 μl compound solutions (5×) and the cell responses were recorded continuously for one hour.
(§3) All studies were carried out at a controlled temperature (28° C.). At least two independent sets of experiments, each with at least three replicates, were performed. […] All dose-dependent responses were analyzed using non-linear regression method with the GraphPad Prism 5.
Three different types of cells: human colon cancerous cell line HT-29, HEK293 and its engineered HEK-hERG cell lines were used. HT-29 is known to endogenously express hERG channels. HEK293 is a native cell line without endogenously expressed hERG channels, while HEK-hERG is an engineered HEK293 cells having stably expressed hERG channels. Mallotoxin, a newly discovered hERG activator, was used to activate hERG channels at or near physiological conditions (i.e., 1×HBSS buffered conditions).

hERG channel = hERG channel (Homo sapiens, UniProt Q12809); assay: Rb+ flux assay using HEK-hERG cells; conditions: for effect on hERG ion flux (Rb+ flux, FIG. 6): HEK-hERG cells, overall statement, KCl and concentration not specified
Sequence of hERG channel (Q12809 whole entry): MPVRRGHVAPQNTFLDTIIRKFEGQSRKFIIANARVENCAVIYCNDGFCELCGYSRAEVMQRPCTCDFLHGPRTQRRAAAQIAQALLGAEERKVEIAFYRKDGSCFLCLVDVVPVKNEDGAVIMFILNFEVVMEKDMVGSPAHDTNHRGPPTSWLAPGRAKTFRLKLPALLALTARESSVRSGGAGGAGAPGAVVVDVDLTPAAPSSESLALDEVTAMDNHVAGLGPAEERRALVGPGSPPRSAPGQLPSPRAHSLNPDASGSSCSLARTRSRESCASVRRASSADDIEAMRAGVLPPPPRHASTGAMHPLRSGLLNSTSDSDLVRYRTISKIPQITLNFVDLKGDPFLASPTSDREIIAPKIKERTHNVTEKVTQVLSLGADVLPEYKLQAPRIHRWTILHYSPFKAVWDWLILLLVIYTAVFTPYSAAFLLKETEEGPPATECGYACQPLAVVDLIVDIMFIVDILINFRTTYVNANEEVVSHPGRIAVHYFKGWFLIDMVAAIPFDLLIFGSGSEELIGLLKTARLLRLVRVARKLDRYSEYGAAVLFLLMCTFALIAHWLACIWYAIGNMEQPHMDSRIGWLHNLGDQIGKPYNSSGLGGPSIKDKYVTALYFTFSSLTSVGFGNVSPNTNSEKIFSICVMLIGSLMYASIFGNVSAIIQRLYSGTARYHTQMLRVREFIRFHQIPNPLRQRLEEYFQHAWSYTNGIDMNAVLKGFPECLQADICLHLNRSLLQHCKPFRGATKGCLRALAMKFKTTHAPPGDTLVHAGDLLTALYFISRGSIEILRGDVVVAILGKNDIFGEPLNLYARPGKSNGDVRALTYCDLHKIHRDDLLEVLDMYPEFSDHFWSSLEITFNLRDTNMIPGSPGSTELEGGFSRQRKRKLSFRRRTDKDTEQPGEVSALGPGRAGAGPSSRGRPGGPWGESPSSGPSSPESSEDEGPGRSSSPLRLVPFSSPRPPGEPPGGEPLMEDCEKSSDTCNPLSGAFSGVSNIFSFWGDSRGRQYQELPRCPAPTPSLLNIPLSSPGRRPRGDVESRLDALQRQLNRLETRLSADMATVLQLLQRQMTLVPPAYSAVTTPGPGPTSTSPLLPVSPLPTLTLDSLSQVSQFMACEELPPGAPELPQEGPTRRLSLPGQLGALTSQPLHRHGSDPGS
Protocol: Briefly, 50,000 cells per well were plated in 96-well tissue culture treated plates 20 hours before assay. In the next day, cells were incubated with complete cell culture medium containing 5 mM RbCl for 3 hours at 37° C. with 5% CO2. Then compounds (10×) diluted in HBSS were added into the cell culture medium and cells were incubated at 37° C. with 5% CO2 for another hour. Cells were washed twice with Rb^+ free cell culture medium and incubated with 180 μl/well of cell culture medium containing different concentration of KCl for exactly 10 minutes. The supernatant from each well was transferred to a new 96 well plate immediately. Cells were lysed with 180 μl/well 0.5% Triton-100 in HBSS. The Rb^+ concentration of each sample was determined by ICR8000 (Aurora Biomed Inc.).

[1] = tested on: mallotoxin DMR signal in HT29 cells; assay: DMR modulation index against the mallotoxin DMR signal in HT29 cells; assay type: cell-based, human
Excerpt: A “molecule modulation index” or like terms is an index to display the ability of the molecule to modulate the biosensor output signals of the panels of markers acting on the panel of cells. The modulation index is generated by normalizing a specific biosensor output signal parameter of a response of a cell upon stimulation with a marker in the presence of a molecule against that in the absence of any molecule.
as §1, §2, §3
(§4) The DMR modulation index was generated by normalizing the mallotoxin DMR signal in either cell line in the presence of compound […] to its corresponding DMR signal in the absence of the compound, and the percentage of modulation was based on the amplitude of the mallotoxin DMR signal at a specific time (−18 min after stimulation for HEK-hERG cells, and ˜50 min after stimulation for HT29 cells, respectively). Mallotoxin is known to display polypharmacology. It is also known to be a protein kinase C (PKC) inhibitor; and PKC is a downstream signaling component of hERG activation. Thus, it would be difficult or almost impossible to assign the mode(s) of action of mallotoxin to be a hERG activator when either cell line is individually assayed with the label-free biosensor (i.e., Epic® system). […] However, combining the primary DMR profiles of a compound across the three cell lines tested with the modulation index of the compound against the mallotoxin responses in both HT29 and […] cells can correctly identify whether the compound is a hERG activator or not. The results shown in FIG. 1 indicate that indeed mallotoxin is a hERG activator; and the activation of hERG can result in detectable biosensor responses in the two hERG expressing cell lines.

[2] = tested on: hERG channel or hERG-associated signaling complex; assay: Classification of hERG modulators by label-free biosensor profiles across three cell lines plus mallotoxin modulation index; assay type: cell-based, human
Excerpt: The traditional hERG ion channel assay involves assaying ion flux such as Rb^+ flux using ion absorption assays, or assaying hERG currents directly using patch clamping methods. Traditionally, a molecule which causes increase in Rb^+ flux and/or hERG currents is referred to a hERG activator, while a molecule which inhibits Rb^+ flux and/or hERG currents is referred to a hERG inhibitor. […] These hERG activators may or may not result in detectable biosensor signals in cells, using label-free biosensor cellular assays. A hERG activator that results in a detectable biosensor signal in a hERG expressing cell via hERG or hERG signaling complex is also referred to a label-free biosensor hERG activator.
Disclosed are methods of classifying a molecule for modulating hERG activity, comprising the steps: a. incubating a molecule individually with at least three different types of cells consisting of a native cell endogenously expressing hERG, an engineered cell stably expressing hERG and its parental cell without expressing hERG, and b. monitoring the molecule induced cellular response on each cell type with a label-free biosensor cellular assay,
Also disclosed are methods, further comprising as steps c) incubating a label-free biosensor hERG activator with each cell type in the presence of the molecule, d. monitoring the label-free biosensor hERG activator induced cellular response on each cell type in the presence of the molecule, e. generating a biosensor modulation index of the molecule against the label-free biosensor hERG activator induced biosensor signals in the two hERG expressing cell types.
as §4

[3] = 5 mM KCl, compound at 10 or 50 μM

SMILES: O=C(O)c1ccccc1Nc1cccc(C(F)(F)F)c1 [flufenamic acid]
- DMR signal in HEK-hERG cells (HEK-hERG cells; compound at 10 μM): robust DMR signals
- Rb+ signal in HEK-hERG cells (hERG channel; [3]): small and dose-dependent increase
- effect on hERG ion flux (Rb+ flux, FIG. 6) (hERG channel): weak hERG ion flux activator
- modulation index against mallotoxin in HT29 cells ([1]; compound 10 micromolar, mallotoxin 16 micromolar, amplitude ~50 min after stimulation): −90%
- modulation of the mallotoxin DMR signal in HT29 cells ([1]; compound at 10 micromolar, mallotoxin 16 micromolar): selectively attenuated
- hERG pathway activity class by label-free biosensor [2]: hERG pathway activator

SMILES: CC(=O)c1c(O)c(C)c(O)c(Cc2c(O)c3c(c(C(=O)/C=C/c4ccccc4)c2O)OC(C)(C)C=C3)c1O [mallotoxin]
- EC50 (HEK-hERG cells; amplitudes at 18 min after stimulation, read-out: apparent EC50 of dose-dependent DMR signal in HEK-hERG cells): ~25 µM
- DMR signal in HEK-hERG cells (HEK-hERG cells; compound at 16 micromolar): robust DMR signal
- Rb+ signal in HEK-hERG cells (hERG channel; [3]): significant increase
- Rb+ signal in HEK-hERG cells (hERG channel; 40 mM KCl, compound at 10 μM): obvious increase
- effect on hERG ion flux (Rb+ flux, FIG. 6) (hERG channel): strong hERG ion flux activator
- modulation of the mallotoxin DMR signal in HT29 cells ([1]; pretreatment with 16 micromolar compound, then 16 micromolar mallotoxin): completely caused the desensitization
- hERG pathway activity class by label-free biosensor [2]: label-free hERG pathway activator
